Where a name gives a salt, the structure may show the parent alone.
Columns and labels:
Format in all cases: in vivo, dog
mongrel adult dogs [1] = assay: Effects on arterial mean blood pressure (thoractomized anesthetized dogs, i.v.)
Experimental: (§1) All experiments were conducted on male and female thoractomized mongrel adult dogs weighing about 10 Kg under anesthesia with pentobarbital sodium.
(§2) Arterial blood pressure was measured by pressure transducer (Nippon Koden MPU-0.5) connected with the cannula inserted from exposed carotid artery into aorta. Aortic blood flow was determined by means of electromagnetic flow meter (Nippon Koden MF-5) mounted at an origin of aorta. Coronary sinus out flow and coronary sinus oxygen tension were assessed by means of electromagnetic flow meter (Nippon Koden MF-5) and Po2 Macro electrode (Beckmann Moder 160-C), respectively, using Morawitz cannulization technique. Heart rate was measured by cardiotachometer (Nippon Koden RT-2) synchronized with systolic blood pressure of aorta.

mongrel adult dogs [2] = assay: Effects on aortic blood flow (thoractomized anesthetized dogs, i.v.)
Experimental: as §1, §2

mongrel adult dogs [3] = assay: Effects on coronary sinus out flow (thoractomized anesthetized dogs, i.v.)
Experimental: as §1, §2

mongrel adult dogs [4] = assay: Effects on coronary sinus oxygen tension (thoractomized anesthetized dogs, i.v.); settings: i.v. 0.2 mg/Kg, 1 min
Experimental: as §1, §2

COc1ccc(CN2CCNCC2)c(OC)c1OC [Vastarel F, 2,3,4 -trimethoxybenzylpiperazine dihydrochloride]
-78.0%: Changes(%) of basal values, aortic blood flow (mongrel adult dogs [2]; i.v. 2.0 mg/Kg, imm.)
0%: Changes(%) of basal values, arterial mean blood pressure (mongrel adult dogs [1]; i.v. 0.2 mg/Kg, 20 min) | Changes(%) of basal values, arterial mean blood pressure (mongrel adult dogs [1]; i.v. 0.2 mg/Kg, 25 min) | Changes(%) of basal values, arterial mean blood pressure (mongrel adult dogs [1]; i.v. 0.2 mg/Kg, 30 min) | Changes(%) of basal values, arterial mean blood pressure (mongrel adult dogs [1]; i.v. 0.6 mg/Kg, 20 min) | Changes(%) of basal values, arterial mean blood pressure (mongrel adult dogs [1]; i.v. 0.6 mg/Kg, 25 min) | Changes(%) of basal values, arterial mean blood pressure (mongrel adult dogs [1]; i.v. 0.6 mg/Kg, 30 min) | Changes(%) of basal values, arterial mean blood pressure (mongrel adult dogs [1]; i.v. 2.0 mg/Kg, 15 min) | Changes(%) of basal values, aortic blood flow (mongrel adult dogs [2]; i.v. 0.2 mg/Kg, 1 min) | Changes(%) of basal values, aortic blood flow (mongrel adult dogs [2]; i.v. 0.2 mg/Kg, 5 min) | Changes(%) of basal values, aortic blood flow (mongrel adult dogs [2]; i.v. 0.2 mg/Kg, 10 min) | Changes(%) of basal values, aortic blood flow (mongrel adult dogs [2]; i.v. 0.2 mg/Kg, 15 min) | Changes(%) of basal values, aortic blood flow (mongrel adult dogs [2]; i.v. 0.2 mg/Kg, 20 min) | Changes(%) of basal values, aortic blood flow (mongrel adult dogs [2]; i.v. 0.2 mg/Kg, 25 min) | Changes(%) of basal values, aortic blood flow (mongrel adult dogs [2]; i.v. 0.2 mg/Kg, 30 min) | Changes(%) of basal values, aortic blood flow (mongrel adult dogs [2]; i.v. 0.2 mg/Kg, imm.) | Changes(%) of basal values, aortic blood flow (mongrel adult dogs [2]; i.v. 0.6 mg/Kg, 5 min) | Changes(%) of basal values, aortic blood flow (mongrel adult dogs [2]; i.v. 0.6 mg/Kg, 30 min) | Changes(%) of basal values, aortic blood flow (mongrel adult dogs [2]; i.v. 2.0 mg/Kg, 1 min) | Changes(%) of basal values, coronery sinus out flow (mongrel adult dogs [3]; i.v. 0.2 mg/Kg, 5 min) | Changes(%) of basal values, coronery sinus out flow (mongrel adult dogs [3]; i.v. 0.2 mg/Kg, 10 min) | Changes(%) of basal values, coronery sinus out flow (mongrel adult dogs [3]; i.v. 0.2 mg/Kg, 15 min) | Changes(%) of basal values, coronery sinus out flow (mongrel adult dogs [3]; i.v. 0.2 mg/Kg, 20 min) | Changes(%) of basal values, coronery sinus out flow (mongrel adult dogs [3]; i.v. 0.2 mg/Kg, 25 min) | Changes(%) of basal values, coronery sinus out flow (mongrel adult dogs [3]; i.v. 0.2 mg/Kg, 30 min) | Changes(%) of basal values, coronery sinus out flow (mongrel adult dogs [3]; i.v. 0.6 mg/Kg, 10 min) | Changes(%) of basal values, coronery sinus out flow (mongrel adult dogs [3]; i.v. 0.6 mg/Kg, 15 min) | Changes(%) of basal values, coronery sinus out flow (mongrel adult dogs [3]; i.v. 0.6 mg/Kg, 20 min) | Changes(%) of basal values, coronery sinus out flow (mongrel adult dogs [3]; i.v. 0.6 mg/Kg, 25 min) | Changes(%) of basal values, coronery sinus out flow (mongrel adult dogs [3]; i.v. 0.6 mg/Kg, 30 min) | Changes(%) of basal values, coronery sinus out flow (mongrel adult dogs [3]; i.v. 2.0 mg/Kg, 30 min)
+5.0%: Changes(%) of basal values, aortic blood flow (mongrel adult dogs [2]; i.v. 2.0 mg/Kg, 20 min) | Changes(%) of basal values, aortic blood flow (mongrel adult dogs [2]; i.v. 2.0 mg/Kg, 30 min)
-2.0%: Changes(%) of basal values, arterial mean blood pressure (mongrel adult dogs [1]; i.v. 0.2 mg/Kg, 5 min) | Changes(%) of basal values, arterial mean blood pressure (mongrel adult dogs [1]; i.v. 0.6 mg/Kg, 1 min) | Changes(%) of basal values, arterial mean blood pressure (mongrel adult dogs [1]; i.v. 2.0 mg/Kg, 5 min) | Changes(%) of basal values, arterial mean blood pressure (mongrel adult dogs [1]; i.v. 2.0 mg/Kg, 25 min) | Changes(%) of basal values, arterial mean blood pressure (mongrel adult dogs [1]; i.v. 2.0 mg/Kg, 30 min)
+1.5%: Changes(%) of basal values, aortic blood flow (mongrel adult dogs [2]; i.v. 0.6 mg/Kg, imm.)
-35.0%: Changes(%) of basal values, arterial mean blood pressure (mongrel adult dogs [1]; i.v. 2.0 mg/Kg, 1 min)
-55.0%: Changes(%) of basal values, arterial mean blood pressure (mongrel adult dogs [1]; i.v. 2.0 mg/Kg, imm.)
+1.0%: Changes(%) of basal values, coronery sinus out flow (mongrel adult dogs [3]; i.v. 0.2 mg/Kg, 1 min) | Changes(%) of basal values, coronery sinus out flow (mongrel adult dogs [3]; i.v. 2.0 mg/Kg, 25 min) | Changes(%) of basal values, coronary sinus oxygen tension (mongrel adult dogs [4])
+9.0%: Changes(%) of basal values, coronery sinus out flow (mongrel adult dogs [3]; i.v. 2.0 mg/Kg, 10 min)
+23.0%: Changes(%) of basal values, aortic blood flow (mongrel adult dogs [2]; i.v. 2.0 mg/Kg, 10 min)
+0.5%: Changes(%) of basal values, aortic blood flow (mongrel adult dogs [2]; i.v. 0.6 mg/Kg, 1 min)
+2.5%: Changes(%) of basal values, coronery sinus out flow (mongrel adult dogs [3]; i.v. 0.6 mg/Kg, 1 min) | Changes(%) of basal values, coronery sinus out flow (mongrel adult dogs [3]; i.v. 0.6 mg/Kg, 5 min)
-3.0%: Changes(%) of basal values, arterial mean blood pressure (mongrel adult dogs [1]; i.v. 0.2 mg/Kg, imm.) | Changes(%) of basal values, coronery sinus out flow (mongrel adult dogs [3]; i.v. 2.0 mg/Kg, 1 min)
+11.0%: Changes(%) of basal values, aortic blood flow (mongrel adult dogs [2]; i.v. 2.0 mg/Kg, 5 min)
-1.5%: Changes(%) of basal values, arterial mean blood pressure (mongrel adult dogs [1]; i.v. 0.2 mg/Kg, 10 min) | Changes(%) of basal values, arterial mean blood pressure (mongrel adult dogs [1]; i.v. 0.6 mg/Kg, 5 min) | Changes(%) of basal values, aortic blood flow (mongrel adult dogs [2]; i.v. 0.6 mg/Kg, 25 min)
+3.0%: Changes(%) of basal values, coronery sinus out flow (mongrel adult dogs [3]; i.v. 2.0 mg/Kg, 5 min)
+6.0%: Changes(%) of basal values, aortic blood flow (mongrel adult dogs [2]; i.v. 2.0 mg/Kg, 25 min) | Changes(%) of basal values, coronery sinus out flow (mongrel adult dogs [3]; i.v. 0.6 mg/Kg, imm.)
-13.0%: Changes(%) of basal values, coronery sinus out flow (mongrel adult dogs [3]; i.v. 2.0 mg/Kg, imm.)
+4.0%: Changes(%) of basal values, coronery sinus out flow (mongrel adult dogs [3]; i.v. 0.2 mg/Kg, imm.) | Changes(%) of basal values, coronery sinus out flow (mongrel adult dogs [3]; i.v. 2.0 mg/Kg, 20 min)
-6.0%: Changes(%) of basal values, arterial mean blood pressure (mongrel adult dogs [1]; i.v. 0.6 mg/Kg, imm.)
+8.0%: Changes(%) of basal values, coronery sinus out flow (mongrel adult dogs [3]; i.v. 2.0 mg/Kg, 15 min)
+10.0%: Changes(%) of basal values, aortic blood flow (mongrel adult dogs [2]; i.v. 2.0 mg/Kg, 15 min)
-1.0%: Changes(%) of basal values, arterial mean blood pressure (mongrel adult dogs [1]; i.v. 0.2 mg/Kg, 1 min) | Changes(%) of basal values, arterial mean blood pressure (mongrel adult dogs [1]; i.v. 0.2 mg/Kg, 15 min) | Changes(%) of basal values, arterial mean blood pressure (mongrel adult dogs [1]; i.v. 0.6 mg/Kg, 10 min) | Changes(%) of basal values, arterial mean blood pressure (mongrel adult dogs [1]; i.v. 0.6 mg/Kg, 15 min) | Changes(%) of basal values, arterial mean blood pressure (mongrel adult dogs [1]; i.v. 2.0 mg/Kg, 10 min) | Changes(%) of basal values, arterial mean blood pressure (mongrel adult dogs [1]; i.v. 2.0 mg/Kg, 20 min) | Changes(%) of basal values, aortic blood flow (mongrel adult dogs [2]; i.v. 0.6 mg/Kg, 10 min) | Changes(%) of basal values, aortic blood flow (mongrel adult dogs [2]; i.v. 0.6 mg/Kg, 15 min) | Changes(%) of basal values, aortic blood flow (mongrel adult dogs [2]; i.v. 0.6 mg/Kg, 20 min)
